Values quoted from earlier work, collected in patent US20020107236A1, “Methods of treating sexual dysfunction associated with hypertension” (priority 2000, published 2002).

Test system: male rats
Details: used for treatment of hypertensive disorder in male rats

## CCCCc1nc(Cl)c(CO)n1Cc1ccc(-c2ccccc2-c2nn[nH]n2)cc1 [losartan]
  preservation of sexual function: advantage in preservation of sexual function
